Results taken from the NIST ThermoML archive (doi:10.1016/j.jct.2008.12.002).

Test: xn = mol fraction of the nth substance listed
Details: 101 kPa, Liquid, Vibrating tube method

CCCCCCCC[n+]1ccn(C)c1.F[B-](F)(F)F [1-methyl-3-octylimidazolium tetrafluoroborate] + OCCO
mass density [kg/m3]
Details | 298.15 K | 308.15 K | 318.15 K
x1 = 0.0027 | 1109.9 | 1102.8 | 1095.7
x1 = 0.0046 | 1109.7 | 1102.7 | 1095.4
x1 = 0.0081 | 1109.5 | 1102.4 | 1095.2
x1 = 0.0151 | 1109 | 1101.9 | 1094.6
x1 = 0.0316 | 1108 | 1100.8 | 1093.4
x1 = 0.0614 | 1106.4 | 1099.2 | 1091.7
x1 = 0.083 | 1105.4 | 1098 | 1090.6
x1 = 0.1341 | 1103.5 | 1096 | 1088.6
x1 = 0.2026 | 1101.7 | 1094 | 1086.8
x1 = 0.273 | 1100.4 | 1092.7 | 1085.3
x1 = 0.4125 | 1099.2 | 1091.5 | 1084.2
x1 = 0.5198 | 1099 | 1091.3 | 1084.1
x1 = 0.6306 | 1099.3 | 1091.6 | 1084.5
x1 = 0.7919 | 1100.3 | 1092.6 | 1085.5
x1 = 0.9583 | 1101.6 | 1094 | 1087.1
x1 = 1 | 1101.9 | 1094.32 | 1087.5

CCCCCCCCOS(=O)(=O)[O-].CCCCn1cc[n+](C)c1 [1-butyl-3-methylimidazolium octyl sulfate] + OCCO
mass density [kg/m3]
Details | 298.15 K | 308.15 K | 318.15 K
x1 = 0.0003 | 1109.9 | 1102.8 | 1095.5
x1 = 0.0008 | 1109.8 | 1102.6 | 1095.3
x1 = 0.0012 | 1109.6 | 1102.5 | 1095.2
x1 = 0.0017 | 1109.5 | 1102.4 | 1095.1
x1 = 0.002 | 1109.4 | 1102.3 | 1095
x1 = 0.0038 | 1108.8 | 1101.7 | 1094.4
x1 = 0.007 | 1107.8 | 1100.7 | 1093.4
x1 = 0.0119 | 1106.3 | 1099.2 | 1092
x1 = 0.0174 | 1104.7 | 1097.7 | 1090.5
x1 = 0.0258 | 1102.5 | 1095.5 | 1088.2
x1 = 0.0508 | 1096.8 | 1089.8 | 1082.6
x1 = 0.19 | 1079.9 | 1072.9 | 1065.9
x1 = 0.301 | 1074.2 | 1067.3 | 1060.4
x1 = 0.3712 | 1072.2 | 1065.3 | 1058.4
x1 = 0.4591 | 1070.5 | 1063.6 | 1056.8
x1 = 0.5435 | 1069.4 | 1062.7 | 1055.9
x1 = 0.6225 | 1068.7 | 1062.1 | 1055.4
x1 = 0.7366 | 1068.2 | 1061.5 | 1054.9
x1 = 0.8073 | 1067.9 | 1061.3 | 1054.8
x1 = 0.9007 | 1067.7 | 1061.2 | 1054.6
x1 = 1 | 1067.6 | 1061 | 1054.5

CCCCn1cc[n+](C)c1.F[B-](F)(F)F [1-butyl-3-methylimidazolium tetrafluoroborate] + OCCO
mass density [kg/m3]
Details | 298.15 K | 308.15 K | 318.15 K
x1 = 0.0266 | 1116.7 | 1109.4 | 1102.2
x1 = 0.0766 | 1127.3 | 1119.9 | 1112.5
x1 = 0.1017 | 1131.9 | 1124.4 | 1116.9
x1 = 0.1678 | 1142.4 | 1134.7 | 1126.9
x1 = 0.2425 | 1152.1 | 1144.1 | 1136.2
x1 = 0.3825 | 1166 | 1157.8 | 1149.7
x1 = 0.4389 | 1170.5 | 1162.4 | 1154.3
x1 = 0.5207 | 1176.4 | 1168.3 | 1160.3
x1 = 0.6049 | 1181.7 | 1173.7 | 1165.8
x1 = 0.7196 | 1188.1 | 1180.4 | 1172.7
x1 = 0.8106 | 1192.7 | 1185.1 | 1177.6
x1 = 0.8978 | 1196.8 | 1189.4 | 1182.1
x1 = 1 | 1201.2 | 1194 | 1186.9
